Like-named read-outs stand apart in the source and are kept apart here.
Legend:
α4β2* = conditions: read-out: α4β2* Ki, cited from earlier work
(α1)2β1γδ = conditions: read-out: (α1)2β1γδ Ki, cited from earlier work
α7* = conditions: read-out: α7* Ki, cited from earlier work
α3β4* = conditions: read-out: α3β4* Ki, cited from earlier work
α7 nAChR = α7 nAChR (Homo sapiens, UniProt P36544); test: Two-electrode voltage clamp, nAChRs expressed in Xenopus oocytes; assay type: cell-based; conditions: 1 or 10 µM, relative to ACh control; co-applied at 1 µM with ACh
α3β4 nAChR = α3β4 nAChR (Homo sapiens, UniProt P30926+P32297); test: as above; assay type: cell-based; conditions: 1 or 10 µM, relative to ACh control; co-applied at 1 µM with ACh
α4β2* nAChR = α4β2* nAChR (Rattus norvegicus, UniProt P09483+P12390); test: Competition binding assay using
(α1)2β1γδ nAChR = (α1)2β1γδ nAChR (Tetronarce californica, UniProt P02710+P02714+P02718); test: Competition binding assay using; parameters: species or system Torpedo californica
muscle nAChR α1β1εδ = muscle nAChR α1β1εδ (Mus musculus, UniProt P02716+P04756+P20782); test: Two-electrode voltage clamp, nAChRs expressed in Xenopus oocytes; assay type: cell-based; conditions: 1 or 10 µM, relative to ACh control; co-applied at 1 µM with ACh

SMILES: O=c1cccc2n1C[C@@H]1CNC[C@H]2C1 [3 (Cyt), cytisine]
- Ki (α4β2*; ref [41],[44],[45]): 0.122 nM

SMILES: O=c1c(-c2cccnc2)ccc2n1C[C@@H]1CNC[C@H]2C1 [4 (3PC), 3-(pyridine-3-yl)-cytisine]
- Ki ((α1)2β1γδ; ref [41],[44],[45]): > 5000 nM

SMILES: c1cnc2cc3c(cc2n1)[C@@H]1CNC[C@H]3C1 [5 (Var), varenicline]
- Ki (α7*; ref [42]): 322 nM
- Ki ((α1)2β1γδ; ref [42]): 3540 nM
- Ki (α3β4*; ref [42]): 240 nM
- Ki (α4β2*; ref [42]): 0.06 nM

SMILES: O=C1CCCC2[C@H]3CNC[C@H](C3)CN12 (some centres unmarked) [Compound 6, tetrahydrocytisine]
- Ki (α7*; ref [44]): 2000 nM
- Ki (α3β4*; ref [44]): 385 ± 6 nM
- Ki (α4β2*; ref [44]): 17 nM

SMILES: CN1C[C@@H]2C[C@H](C1)C1CCCC(=O)N1C2 (some centres unmarked) [Compound 7]
- Ki (α7*; ref [44]): 10000 nM
- Ki ((α1)2β1γδ; ref [44]): > 50000 nM
- Ki (α3β4*; ref [44]): 2450 nM
- Ki (α4β2*; ref [44]): 34 nM

SMILES: CC(=O)N1C[C@@H]2CNC[C@@H](C2)C1.O=C(O)/C=C/C(=O)O [Compound 8, (1R, 5S)-1-(3,7-diazabicyclo[3.3.1]nonan-3-yl)ethanone]
- functional profile at α7 (α7 nAChR): agonism

SMILES: CCC(=O)N1C[C@@H]2CNC[C@@H](C2)C1.O=C(O)/C=C/C(=O)O [Compound 15, (1R,5S)-1-(3,7-diazabicyclo[3.3.1]nonan-3-yl)propan-1-one]
- functional profile at α3β4* (α3β4 nAChR): Possible agonistic effects

SMILES: CCCC(=O)N1C[C@@H]2CNC[C@@H](C2)C1.O=C(O)/C=C/C(=O)O [Compound 16, (1R,5S)-1-(3,7-diazabicyclo[3.3.1]nonan-3-yl)butan-1-one]
- functional profile at α3β4* (α3β4 nAChR): Possible agonistic effects
- functional profile at α7 (α7 nAChR): agonism
- fold higher affinity for the α4β2* receptor (α4β2* nAChR; α4β2* versus α3β4*): about 74 fold

SMILES: O=C(O)/C=C/C(=O)O.O=C(c1cccc(Cl)c1)N1C[C@@H]2CNC[C@@H](C2)C1 [Compound 22, (1R,5S)-3,7-diazabicyclo[3.3.1]nonan-3-yl(3-chlorophenyl)methanone]
- affinity for the α4β2* subtype in words (α4β2* nAChR): inactive

SMILES: O=C(O)/C=C/C(=O)O.O=C(c1cccc([N+](=O)[O-])c1)N1C[C@@H]2CNC[C@@H](C2)C1 [Compound 23, (1R,5S)-3,7-diazabicyclo[3.3.1]nonan-3-yl(3-nitrophenyl)methanone]
- affinity for the α4β2* subtype in words (α4β2* nAChR): inactive

SMILES: CS(=O)(=O)N1C[C@@H]2CNC[C@@H](C2)C1 [Compound 34, (1R,5S)-3-(methylsulfonyl)-3,7-diazabicyclo[3.3.1]nonane]
- Ki ((α1)2β1γδ nAChR): > 10000 nM

SMILES: Cl.O=S(=O)(c1ccc(Br)cc1)N1C[C@@H]2CNC[C@@H](C2)C1 [Compound 39, (1R,5S)-3-(4-bromophenylsulfonyl)-3,7-diazabicyclo[3.3.1]nonane]
- affinity for the α4β2* subtype in words (α4β2* nAChR): nonactive

SMILES: O=[N+]([O-])c1ccc(S(=O)(=O)N2C[C@@H]3CNC[C@@H](C3)C2)cc1 [Compound 40, (1R,5S)-3-(4-nitrophenylsulfonyl)-3,7-diazabicyclo[3.3.1]nonane]
- Ki ((α1)2β1γδ nAChR): > 10000 nM

SMILES: CN(C)C(=O)N1C[C@@H]2CNC[C@@H](C2)C1.O=C(O)/C=C/C(=O)O [Compound 41, (1R,5S)-N,N-dimethyl-3,7-diazabicyclo[3.3.1]nonane-3-carboxamide]
- fold lower affinity for the α4β2* nAChR (α4β2* nAChR; compared to carboxamide analog 17): 10 fold

SMILES: CCN(CC)C(=O)N1C[C@@H]2CNC[C@@H](C2)C1.O=C(O)/C=C/C(=O)O [Compound 42, (1R,5S)-N,N-diethyl-3,7-diazabicyclo[3.3.1]nonane-3-carboxamide]
- affinity for the α4β2* subtype in words (α4β2* nAChR): lost its affinity

SMILES: O=C(C1CCCC1)N1C[C@@H]2CNC[C@@H](C2)C1.O=C(O)/C=C/C(=O)O [Compound 43, (1R,5S)-3,7-diazabicyclo[3.3.1]nonan-3-yl(cyclopentyl)methanone]
- functional profile at α3β4* (α3β4 nAChR): Possible agonistic effects
- functional profile at α7 (α7 nAChR): agonism

SMILES: O=C(CC1CCCC1)N1C[C@@H]2CNC[C@@H](C2)C1.O=C(O)/C=C/C(=O)O [Compound 55, 1-((1R,5S)-3,7-diazabicyclo[3.3.1]nonan-3-yl)-2-cyclopentylethanone]
- functional profile at α3β4* (α3β4 nAChR): essentially no effect
- functional profile at α7 (α7 nAChR): apparent antagonistic activity
- functional profile at muscle type (muscle nAChR α1β1εδ): apparent antagonistic activity

SMILES: O=C(N1CCCC1)N1C[C@@H]2CNC[C@@H](C2)C1.O=C(O)/C=C/C(=O)O [Compound 67, (1R,5S)-3,7-diazabicyclo[3.3.1]nonan-3-yl(pyrrodin-1-yl)methanone]
- affinity for the α4β2* subtype in words (α4β2* nAChR): not active
- Ki ((α1)2β1γδ nAChR): > 10000 nM

SMILES: O=C(N1CCC(Cc2ccccc2)CC1)N1C[C@@H]2CNC[C@@H](C2)C1 [Compound 69, (1R,5S)-3,7-diazabicyclo[3.3.1]nonan-3-yl(4-benzylpiperidin-1-yl)methanone]
- Ki ((α1)2β1γδ nAChR): > 5000 nM

SMILES: CC(=O)N1C[C@@H]2C[C@@H](CN(C)C2)C1 [Compound 70, 1-((1R,5S)-7-methyl-3,7-diazabicyclo[3.3.1]nonan-3-yl)ethanone]
- fold lower affinity for the α4β2* subtype (α4β2* nAChR; compared to acetylbispidine 8): 35 fold

SMILES: C1NCC2CNCC1C2 [bispidine, 3,7-diazabicyclo[3.3.1]nonane]
- functional profile at α7 (α7 nAChR): weak activation
